Experimental data from patent US20250179103A1, “6-OXODECAHYDROPYRROLO[1,2-A][1,5]DIAZOCINE AND 6-OXODECAHYDRO-4H-PYRROLO[2,1-D][1,5]THIAZOCINE DERIVATIVES AS STAT3 AND STAT6 MODULATORS FOR THE TREATMENT OF CANCER AND INFLAMMATORY CONDITIONS” (Recludix Pharma, Inc., priority 2022, published 2025).

Assays:
[1] = molecular target: T1, Recombinant STAT3 protein (STAT3(G127-I722)) (Homo sapiens, UniProt P40763); assay: STAT3 Fluorescence Polarization (FP) Assay; type: binding; details: STAT3(G127-I722) 25 nM, probe 5-FAM-GpYLPQTV-NH2 2 nM, 45-minute incubation
T1 construct: Recombinant STAT3 protein (STAT3(G127-I722))
T1 sequence (P40763 127-722): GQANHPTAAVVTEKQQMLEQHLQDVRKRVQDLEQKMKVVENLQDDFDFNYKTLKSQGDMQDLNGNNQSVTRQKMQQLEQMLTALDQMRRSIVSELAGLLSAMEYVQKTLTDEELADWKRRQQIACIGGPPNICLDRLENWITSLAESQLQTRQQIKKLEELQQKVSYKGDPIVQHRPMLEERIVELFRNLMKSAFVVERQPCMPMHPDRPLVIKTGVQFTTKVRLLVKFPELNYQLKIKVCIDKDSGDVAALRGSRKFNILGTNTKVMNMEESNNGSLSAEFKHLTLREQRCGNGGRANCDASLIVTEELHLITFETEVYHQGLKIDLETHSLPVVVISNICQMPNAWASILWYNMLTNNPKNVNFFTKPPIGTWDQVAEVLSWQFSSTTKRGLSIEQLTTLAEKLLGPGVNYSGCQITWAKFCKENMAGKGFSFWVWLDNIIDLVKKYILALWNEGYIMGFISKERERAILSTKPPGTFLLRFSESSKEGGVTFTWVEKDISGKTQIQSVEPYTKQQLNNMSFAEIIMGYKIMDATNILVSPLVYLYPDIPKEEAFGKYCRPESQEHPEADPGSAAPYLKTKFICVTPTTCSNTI
Summary of the method: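 Fluorescence polarization after a 45-min room-temperature incubation measured compound displacement of a 2 nM fluorescein-labelled phosphotyrosine peptide (5-FAM-GpYLPQTV-NH2) from 25 nM recombinant STAT3(G127-I722). Buffer was 10 mM HEPES pH 7.4 with 1% DMSO final. IC50s were fitted by nonlinear regression of mP against log concentration.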

[2] = molecular target: T2, Recombinant STAT6 protein (STAT6(W123-T658)) (Homo sapiens, UniProt P42226); assay: STAT6 Fluorescence Polarization (FP) Assay; type: binding; details: STAT6(W123-T658) 250 nM, probe 5-FAM-ApYKPFQDLI-NH2 2 nM, 45-minute incubation
T2 construct: Recombinant STAT6 protein (STAT6(W123-T658))
T2 sequence (P42226 123-658): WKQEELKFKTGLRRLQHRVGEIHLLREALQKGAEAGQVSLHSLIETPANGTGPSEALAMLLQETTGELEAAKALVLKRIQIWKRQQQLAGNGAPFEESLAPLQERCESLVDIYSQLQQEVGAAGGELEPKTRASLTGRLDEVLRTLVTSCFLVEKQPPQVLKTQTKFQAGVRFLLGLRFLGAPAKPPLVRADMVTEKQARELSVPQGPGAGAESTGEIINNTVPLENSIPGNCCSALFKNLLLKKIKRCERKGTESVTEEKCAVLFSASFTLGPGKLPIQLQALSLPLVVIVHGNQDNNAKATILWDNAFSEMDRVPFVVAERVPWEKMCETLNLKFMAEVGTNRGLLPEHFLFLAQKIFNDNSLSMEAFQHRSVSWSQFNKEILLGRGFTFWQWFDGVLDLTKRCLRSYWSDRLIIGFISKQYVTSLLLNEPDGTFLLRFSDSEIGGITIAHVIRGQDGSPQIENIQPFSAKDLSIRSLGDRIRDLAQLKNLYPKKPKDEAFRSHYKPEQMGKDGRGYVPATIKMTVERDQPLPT
Summary of the method: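 Displacement of a fluorescent phosphotyrosine peptide (5-FAM-ApYKPFQDLI-NH2, 2 nM) from STAT6(W123-T658) (250 nM), 1% DMSO, pH 7.4 HEPES buffer. After 45 min at room temperature, polarization (mP) was plotted versus log compound concentration and fitted by nonlinear regression to give IC50.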

Row | SMILES | IC50 [1] [µM] | IC50 [2] [µM]
1 | CC(=O)N1CC[C@H]2CC[C@@H](C(=O)N(C)CC(C)C#N)N2C(=O)[C@@H](NC(=O)c2cc3cc(C(F)(F)P(=O)(O)O)ccc3s2)C1 (stereo partly drawn) [Compound 89, ((2-(((5S,8S,10aR)-3-acetyl-8-((2-cyanopropyl)(methyl)carbamoyl)-6-oxodecahydropyrrolo[1,2-a][1,5]diazocin-5-yl)carbamoyl)benzo[b]thiophen-5-yl)difluoromethyl)phosphonic acid] | 1 to 10 | 0.3 to 3
2 | CC(=O)N1CC[C@H]2CC[C@@H](C(=O)N3C[C@@H](C#N)[C@H](c4ccccc4)C3)N2C(=O)[C@@H](NC(=O)c2cc3cc(C(F)(F)P(=O)(O)O)ccc3s2)C1 (single isomer, unassigned) [Compound 52, ((2-(((5S,8S,10aR)-3-acetyl-8-((3S,4R or 3R,4S)-3-cyano-4-phenylpyrrolidine-1-carbonyl)-6-oxodecahydropyrrolo[1,2-a][1,5]diazocin-5-yl)carbamoyl)benzo[b]thiophen-5-yl)difluoromethyl)phosphonic acid] | 1 to 10 | ≤ 0.3
3 | CC(=O)N1CC[C@H]2CC[C@@H](C(=O)N3CCC[C@H]3Cc3cccnc3)N2C(=O)[C@@H](NC(=O)c2cc3cc(C(F)(F)P(=O)(O)O)ccc3s2)C1 [Compound 126, ((2-(((5S,8S,10aR)-3-acetyl-6-oxo-8-((S)-2-(pyridin-3-ylmethyl)pyrrolidine-1-carbonyl)decahydropyrrolo[1,2-a][1,5]diazocin-5-yl)carbamoyl)benzo[b]thiophen-5-yl)difluoromethyl)phosphonic acid] | 1 to 10 | 0.3 to 3
4 | CC(=O)N1CC[C@H]2CC[C@@H](C(=O)N(C)c3ccc(-c4ccccc4)cc3)N2C(=O)[C@@H](NC(=O)c2cc3cc(C(F)(F)P(=O)(O)O)ccc3s2)C1 [Compound 96, ((2-(((5S,8S,10aR)-8-([1,1′-biphenyl]-4-yl(methyl)carbamoyl)-3-acetyl-6-oxodecahydropyrrolo[1,2-a][1,5]diazocin-5-yl)carbamoyl)benzo[b]thiophen-5-yl)difluoromethyl)phosphonic acid] | 1 to 10 | ≤ 0.3
5 | CC(=O)N1CC[C@H]2CC[C@@H](C(=O)N(C)c3ccccc3)N2C(=O)[C@@H](NC(=O)c2cc3cc(C(C)(F)P(=O)(O)O)ccc3s2)C1 (stereo partly drawn) [Compound 18, (1-(2-(((5S,8S,10aR)-3-acetyl-8-(methyl(phenyl)carbamoyl)-6-oxodecahydropyrrolo[1,2-a][1,5]diazocin-5-yl)carbamoyl)benzo[b]thiophen-5-yl)-1-fluoroethyl)phosphonic acid] | > 10 | 3 to 30
6 | CC(=O)N1CC[C@H]2CC[C@@H](C(=O)N3CC(C(=O)N4CCCCC4)C3)N2C(=O)[C@@H](NC(=O)c2cc3cc(C(F)(F)P(=O)(O)O)ccc3[nH]2)C1 [Compound 128, ((2-(((5S,8S,10aR)-3-acetyl-6-oxo-8-(3-(piperidine-1-carbonyl)azetidine-1-carbonyl)decahydropyrrolo[1,2-a][1,5]diazocin-5-yl)carbamoyl)-1H-indol-5-yl)difluoromethyl)phosphonic acid] | 0.1 to 1 | 0.3 to 3
7 | CC(=O)N1CC[C@H]2CC[C@@H](C(=O)N(c3ccccc3)c3ccccc3)N2C(=O)[C@@H](NC(=O)c2cc3cc(C(F)(F)P(=O)(O)O)ccc3[nH]2)C1 [Compound 55, ((2-(((5S,8S,10aR)-3-acetyl-8-(diphenylcarbamoyl)-6-oxodecahydropyrrolo[1,2-a][1,5]diazocin-5-yl)carbamoyl)-1H-indol-5-yl)difluoromethyl)phosphonic acid] | 1 to 10 | 0.3 to 3
8 | O=C(N[C@H]1CN(C(=O)c2noc3ccc(Cl)cc23)CC[C@H]2CC[C@@H](C(=O)N3CCOCC3)N2C1=O)c1ccc2ccc(C(F)P(=O)(O)O)cc2c1 (stereo partly drawn) [Compound 365, ((7-(((5S,8S,10aR)-3-(5-chlorobenzo[d]isoxazole-3-carbonyl)-8-(morpholine-4-carbonyl)-6-oxodecahydro-pyrrolo[1,2-a][1,5]diazocin-5-yl)carbamoyl)naphthalen-2-yl)fluoromethyl) phosphonic acid] | > 10 | ≤ 0.3
9 | CCN(C(=O)[C@@H]1CC[C@@H]2CCN(C(C)=O)C[C@H](NC(=O)c3cc4cc(C(F)(F)P(=O)(O)O)ccc4[nH]3)C(=O)N21)c1ccccc1 [Compound 169, ((2-(((5S,8S,10aR)-3-acetyl-8-(ethyl(phenyl)carbamoyl)-6-oxodecahydropyrrolo[1,2-a][1,5]diazocin-5-yl)carbamoyl)-1H-indol-5-yl)difluoromethyl)phosphonic acid] | 1 to 10 | 0.3 to 3
10 | C[C@H](C(=O)N1CC[C@H]2CC[C@@H](C(=O)Nc3ccc(-c4ccccc4)cc3)N2C(=O)[C@@H](NC(=O)c2cc3cc(C(F)(F)P(=O)(O)O)ccc3[nH]2)C1)c1ccccc1 [Compound 255, ((2-(((5S,8S,10aR)-8-([1,1′-biphenyl]-4-ylcarbamoyl)-6-oxo-3-((S)-2-phenylpropanoyl)decahydropyrrolo[1,2-a][1,5]diazocin-5-yl)carbamoyl)-1H-indol-5-yl)difluoromethyl)phosphonic acid] | 0.1 to 1 | 0.3 to 3
11 | CC(=O)N1CC[C@H]2CC[C@@H](C(=O)N3CCN(C(=O)OCc4ccccc4)CC3)N2C(=O)[C@@H](NC(=O)c2cc3cc(C(F)(F)P(=O)(O)O)ccc3[nH]2)C1 [Compound 35, ((2-(((5S,8S,10aR)-3-acetyl-8-(4-((benzyloxy)carbonyl)piperazine-1-carbonyl)-6-oxodecahydropyrrolo[1,2-a][1,5]diazocin-5-yl)carbamoyl)-1H-indol-5-yl)difluoromethyl)phosphonic acid] | 1 to 10 | 0.3 to 3
12 | CC(=O)N1CC[C@H]2CC[C@@H](C(=O)N(C)c3cccc(C(F)F)c3)N2C(=O)[C@@H](NC(=O)c2cc3cc(C(F)(F)P(=O)(O)O)ccc3s2)C1 [Compound 201, ((2-(((5S,8S,10aR)-3-acetyl-8-((3-(difluoromethyl)phenyl)(methyl)carbamoyl)-6-oxodecahydropyrrolo[1,2-a][1,5]diazocin-5-yl)carbamoyl)benzo[b]thiophen-5-yl)difluoromethyl)phosphonic acid] | 1 to 10 | 0.3 to 3
13 | COc1cc(C(=O)N[C@H]2CN(C(=O)c3noc4ccc(C)cc34)CC[C@H]3CC[C@@H](C(=O)N4CCOCC4)N3C2=O)cc2cc(CP(=O)(O)O)ccc12 [Compound 388, ((5-methoxy-7-(((5S, 8S,10aR)-3-(5-methylbenzo[d]isoxazole-3-carbonyl)-8-(morpholine-4-carbonyl)-6-oxodecahydropyrrolo [1,2-a][1,5]diazocin-5-yl)carbamoyl)naphthalen-2-yl)methyl) phosphonic acid] | > 10 | 0.3 to 3
14 | Cc1ccc2onc(C(=O)N3CC[C@H]4CC[C@@H](C(=O)N5CCOC(Cc6ccccc6)C5)N4C(=O)[C@@H](NC(=O)c4ccc5ccc(C(F)P(=O)(O)O)cc5c4)C3)c2c1 (stereo partly drawn) [Compound 373, ((7-(((5S,8S,10aR)-8-(2-benzylmorpholine-4-carbonyl)-3-(5-methylbenzo[d]isoxazole-3-carbonyl)-6-oxodecahydropyrrolo [1,2-a][1,5]diazocin-5-yl)carbamoyl)naphthalen-2-yl)fluoromethyl) phosphonic acid] | > 10 | ≤ 0.3
15 | C[C@@H](C(=O)N1CC[C@H]2CC[C@@H](C(=O)Nc3ccc(-c4ccccc4)cc3)N2C(=O)[C@@H](NC(=O)c2cc3cc(C(F)(F)P(=O)(O)O)ccc3[nH]2)C1)c1ccccc1 [Compound 254, ((2-(((5S,8S,10aR)-8-([1,1′-biphenyl]-4-ylcarbamoyl)-6-oxo-3-((R)-2-phenylpropanoyl)decahydropyrrolo[1,2-a][1,5]diazocin-5-yl)carbamoyl)-1H-indol-5-yl)difluoromethyl)phosphonic acid] | 1 to 10 | 0.3 to 3
16 | COC(=O)N1CC[C@H]2CC[C@@H](C(=O)N3C[C@H](c4ccccc4)[C@@H](C#N)C3)N2C(=O)[C@@H](NC(=O)c2cc3cc(C(F)(F)P(=O)(O)O)ccc3s2)C1 (relative stereo) [Compound 250, ((2-(((5S,8S,10aR)-8-((rel-trans)-3-cyano-4-phenylpyrrolidine-1-carbonyl)-3-(methoxycarbonyl)-6-oxodecahydropyrrolo[1,2-a][1,5]diazocin-5-yl)carbamoyl)benzo[b]thiophen-5-yl)difluoromethyl)phosphonic acid] | 0.1 to 1 | ≤ 0.3
